Several values for one entry are separate records, joined by “and”; a condition that tells them apart may be missing. Equal values may be shown once.
Molecular target: Metabotropic glutamate receptor 1 (Rattus norvegicus, UniProt P23385)
Sequence (P23385 whole entry): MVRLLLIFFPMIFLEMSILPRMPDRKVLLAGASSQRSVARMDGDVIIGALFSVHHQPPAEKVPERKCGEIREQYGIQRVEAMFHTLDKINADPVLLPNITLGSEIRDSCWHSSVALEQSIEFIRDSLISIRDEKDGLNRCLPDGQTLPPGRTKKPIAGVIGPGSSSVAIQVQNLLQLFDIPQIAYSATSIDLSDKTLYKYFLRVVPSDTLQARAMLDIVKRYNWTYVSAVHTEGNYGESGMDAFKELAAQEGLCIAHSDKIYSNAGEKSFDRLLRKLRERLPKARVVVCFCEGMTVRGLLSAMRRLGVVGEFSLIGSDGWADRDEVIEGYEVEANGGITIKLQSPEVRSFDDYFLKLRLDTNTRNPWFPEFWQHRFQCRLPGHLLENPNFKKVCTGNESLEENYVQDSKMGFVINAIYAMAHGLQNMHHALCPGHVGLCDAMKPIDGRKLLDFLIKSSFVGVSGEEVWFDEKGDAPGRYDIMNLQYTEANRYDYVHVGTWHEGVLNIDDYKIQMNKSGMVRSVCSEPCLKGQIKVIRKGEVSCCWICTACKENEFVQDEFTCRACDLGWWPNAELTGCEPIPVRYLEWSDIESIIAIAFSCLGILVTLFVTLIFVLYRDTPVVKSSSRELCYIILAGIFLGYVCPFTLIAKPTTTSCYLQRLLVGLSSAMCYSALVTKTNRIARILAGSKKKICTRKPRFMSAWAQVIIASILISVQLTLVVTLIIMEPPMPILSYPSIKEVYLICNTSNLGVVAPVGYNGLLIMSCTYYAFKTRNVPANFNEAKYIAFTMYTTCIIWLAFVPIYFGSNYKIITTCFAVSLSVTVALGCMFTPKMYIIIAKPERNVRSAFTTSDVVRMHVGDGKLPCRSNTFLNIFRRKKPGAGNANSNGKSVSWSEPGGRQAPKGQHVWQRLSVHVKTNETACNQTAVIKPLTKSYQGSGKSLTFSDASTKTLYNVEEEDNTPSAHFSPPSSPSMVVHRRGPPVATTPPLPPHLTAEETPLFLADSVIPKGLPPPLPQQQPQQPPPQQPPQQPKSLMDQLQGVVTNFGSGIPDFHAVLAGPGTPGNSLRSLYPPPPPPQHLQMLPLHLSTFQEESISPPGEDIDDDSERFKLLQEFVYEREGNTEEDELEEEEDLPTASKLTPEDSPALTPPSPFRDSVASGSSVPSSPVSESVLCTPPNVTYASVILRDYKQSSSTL

Ki	SMILES
1000 nM	O=C(Cc1ccccc1)c1ccc2nc3c(cc2c1)CCCO3
1000 nM and 4900 nM	CCOC(=O)C12CC1C(N=O)c1ccccc1O2 (stereo not drawn) [CAS_5126051]
> 10000 nM	N[C@H](C(=O)O)c1cc(O)cc(O)c1 [amino(3,5-dihydroxyphenyl)acetic acid]

— BindingDB's records for doi:10.1124/mol.63.5.1082 (Johnson and Johnson Pharmaceutical Research and …, 2003)
